Measured values taken from patent US20250250283A1, “COMPOUND CAPABLE OF REGULATING AND CONTROLLING ACTIVITY OF 15-PGDH, AND PREPARATION METHOD THEREFOR” (SCINNOHUB PHARMACEUTICAL CO., LTD., priority 2022, published 2025).
Where two headings read alike, the source gives them in different places.

Assays:
15-PGDH enzyme = 15-PGDH enzyme (Homo sapiens (Human), UniProt P15428); test: Detection of activity of 15-PGDH (enzyme inhibition, NADH fluorescence, PGF2α/β-NAD substrates); format: biochemical
Procedure: Test Example 1: Detection of Activity of 15-PGDH Kinase
• a. A solution of pH 7.5 containing 50 mM Tris-HCl, 0.01% Tween 20 was prepared with ultrapure water as a reaction buffer; • b. A 10 mM mother liquor of the compound to be tested was prepared with DMSO, and then the reaction buffer was used to dilute the mother liquor of the compound to be tested to obtain solution 1 of the compound to be tested at a concentration of 40,000 nM, and then the solution 1 of the compound to be tested was serially diluted into solutions 2-9 (or 2-12) of the compound to be tested at 9 (or 11) concentrations with a gradient difference of three-fold. 5 μL of each concentration of solutions of the compound to be tested was respectively taken and added into a 384-well plate as test wells; • c. 5 μL of the reaction buffer was added to the blank wells of the 384-well plate as positive control and blank control wells, respectively; • d. The reaction buffer was used to prepare a 15-PGDH protein solution at a concentration of 5 ng/μL, 5 μL of the 15-PGDH protein solution was taken and added to the test wells and positive control wells, and meanwhile 5 μL of the reaction buffer was added to the blank control wells, then the plate was centrifuged at 2000 rpm for 30 seconds; • e. The reaction buffer was used to prepare 5 mM β-NAD and 2 mM PGF2α, respectively, which were mixed at 1:1 by volume to obtain a substrate mixture, 10 μL of the substrate mixture was taken and added to the test wells, positive control wells and blank control wells to start the reaction; • f. The fluorescence signal value (Ex/Em=340/450) of each well was detected continuously by using a multifunctional microplate reader.
• a) Continuous fluorescence signal values were analyzed by using the “kinetic calculations-slope calculation method” in the PHERAstar Data analysis software to obtain the slope of each test well; • b) The inhibition rate % was calculated by using the following formula:
[formula] • c) Calculation of IC50 and plotting of inhibition rate-dose curves: IC50 values were calculated by fitting compound concentrations and corresponding inhibition rates with a nonlinear regression (dose response-variable slope) via using GraphPad Prism 6.0. The formula was shown below:
Y=Bottom+(Top−Bottom)/(1+10^((Log IC50−X)*HillSlope)), wherein X is a log value of a concentration of the compound, and Y is inhibition rate %.

A549 cells = test: Assay of intracellular PGE2 up-regulatory activity in IL-1β-stimulated A549 cells; format: cell-based; settings: IL-1β induced, 8 h
Procedure: Test Example 2: Assay of Intracellular PGE2 Up-Regulatory Activity
a) A549 cells were inoculated in the 24-well plate, and after cell adhesion, IL-1β was added thereto for 16 h of stimulation to induce COX2 expression and PGE2 production. b) A solution of the compound to be tested was prepared with the culture medium and gradiently diluted to 3 concentrations of 10 nM, 300 nM and 10,000 nM or 7 concentrations of 0.64 nM, 3.2 nM, 16 nM, 80 nM, 400 nM, 2000 nM and 10,000 nM, and meanwhile the positive control group (only IL-1β was added to the cells for induction) and negative control group (only cells were added in the wells without any treatment) were set up. The cell supernatants were collected after 8 h of action, in which the positive control group was induced by IL-1β without treatment of the compounds, and the negative control group was neither stimulated by IL-1β, nor treated with the compounds. c) The PGE2 content of the samples was determined by Prostaglandin E2 Kit, and the fluorescence signal was detected by a multifunctional microplate reader (Ex/Em=337/620, 337/665).
a) A standard curve was plotted with the PGE2 standard in the Prostaglandin E2 Kit, and the PGE2 concentration was calculated by substituting with the fluorescence signal of the sample. b) The PGE2 up-regulation rate % was calculated by using the following formula: […]

[1] = inhibitory activity against 15-PGDH enzyme, class symbols, read-out: IC50

15-PGDH enzyme, sequence (P15428 whole entry): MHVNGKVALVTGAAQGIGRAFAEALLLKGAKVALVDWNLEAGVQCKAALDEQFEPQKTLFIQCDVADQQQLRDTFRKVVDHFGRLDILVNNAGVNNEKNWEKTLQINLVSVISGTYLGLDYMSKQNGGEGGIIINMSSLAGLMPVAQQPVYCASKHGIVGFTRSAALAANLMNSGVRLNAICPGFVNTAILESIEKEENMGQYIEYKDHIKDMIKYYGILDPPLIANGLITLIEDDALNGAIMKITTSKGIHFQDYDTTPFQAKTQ

IC50 (15-PGDH enzyme; [1]) [nM] | SMILES | further results
3 to 10 | O=C(c1sc2nc(-c3ccccc3)n3ccnc3c2c1C1CC1)N1CCCCC1 [Example 14] | 
< 3 | Nc1c(C(=O)N2CCCCC2)sc2nc(-c3ccccc3)n3ccnc3c12 [Example 7] | 
25 to 50 | Nc1c(C(=O)N2CCCC2)sc2nc(-c3ccccc3)n3ccnc3c12 [Example 17] | 
10 to 25 | COc1c(C(=O)N2CCCCC2)sc2nc(-c3ccccc3)n3ccnc3c12 [Example 6, (9-methoxy-5-phenylimidazo[1,2-c]thieno[3,2-e]pyrimidin-8-yl)(piperidin-1-yl)methanone] | 
3 to 10 | O=C(c1sc2nc(-c3ccccc3)n3ccnc3c2c1C(F)(F)F)N1CCCCC1 [Example 12] | 
< 3 | O=C(c1sc2nc(-c3ccccc3)n3ccnc3c2c1I)N1CCCCC1 [Example 4, (9-iodo-5-phenylimidazo[1,2-c]thieno[3,2-e]pyrimidin-8-yl)(piperidin-1-yl)methanone] | 
3 to 10 | Nc1c(C(=O)N2CCC(F)CC2)sc2nc(-c3ccccc3)n3cc(C(F)(F)F)nc3c12 [Example 2, (9-amino-5-phenyl-2-(trifluoromethyl)imidazo[1,2-c]thieno[3,2-e]pyrimidin-8-yl)(4-fluoropiperidin-1-yl)methanone] | 
3 to 10 | CC(C)c1c(C(=O)N2CCCCC2)sc2nc(-c3ccccc3)n3ccnc3c12 [Example 23, (9-isopropyl-5-phenylimidazo[1,2-c]thieno[3,2-e]pyrimidin-8-yl)(piperidin-1-yl)methanone] | 
3 to 10 | Cc1cn2c(-c3ccccc3)nc3sc(C(=O)N4CCC(F)CC4)c(N)c3c2n1 [Example 9] | PGE2 up-regulation rate (A549 cells; compound 400 nM): 333%
10 to 25 | Nc1c(C(=O)N2CCCCC2)sc2nc(-c3nccs3)n3ccnc3c12 [Example 19] | 
< 3 | Nc1c(C(=O)N2CCCCC2)sc2nc(-c3ccncc3)n3ccnc3c12 [Example 3, (9-amino-5-(pyridin-4-yl)imidazo[1,2-c]thieno[3,2-e]pyrimidin-8-yl)(piperidin-1-yl)methanone] | 
3 to 10 | Nc1c(C(=O)N2CCCCC2)sc2nc(-c3ccccn3)n3ccnc3c12 [Example 10] | 
10 to 25 | O=C(c1cc2c(nc(-c3ccccc3)n3ccnc23)s1)N1CCCCC1 [Example 18] | 
3 to 10 | Nc1c(C(=O)N2CCCCC2)sc2nc(-c3ccccc3)n3cnnc3c12 [Example 5, (9-amino-5-phenylthieno[3,2-e][1,2,4]triazolo[4,3-c]pyrimidin-8-yl)(piperidin-1-yl)methanone] | 
10 to 25 | Nc1c(C(=O)N2CCC(F)CC2)sc2c1C1=NCCN1C(c1ccccc1)=N2 [Compound 8, (9-amino-5-phenyl-2,3-dihydroimidazo[1,2-c]thieno[3,2-e]pyrimidin-8-yl)(4-fluoropiperidin-1-yl)methanone] | 
< 3 | Nc1c(C(=O)N2CCCCC2)sc2nc(-c3cccnc3)n3ccnc3c12 [Example 15] | 
< 3 | CN1Cc2cc(-c3nc4sc(C(=O)N5CCCCC5)c(N)c4c4nccn34)ccc2C1=O [Example 24, 5-(9-amino-8-(piperidine-1-carbonyl)imidazo[1,2-c]thieno[3,2-e]pyrimidin-5-yl)-2-methylisoindol-1-one] | PGE2 up-regulation rate (A549 cells; compound 3.2 nM): 568%; PGE2 up-regulation rate (A549 cells; compound 16 nM): 461%; PGE2 up-regulation rate (A549 cells; compound 80 nM): 473%
25 to 50 | CCN(CC)C(=O)c1sc2nc(-c3ccccc3)n3ccnc3c2c1N [Example 16] | 
< 3 | Nc1c(C(=O)N2CCCCC2)sc2nc(-c3cnccn3)n3ccnc3c12 [Example 21] | PGE2 up-regulation rate (A549 cells; compound 400 nM): 321%
3 to 10 | Nc1c(C(=O)N2CCC(F)(F)CC2)sc2nc(-c3ccccc3)n3ccnc3c12 [Example 8] | PGE2 up-regulation rate (A549 cells; compound 16 nM): 483%; PGE2 up-regulation rate (A549 cells; compound 80 nM): 520%; PGE2 up-regulation rate (A549 cells; compound 400 nM): 770%
3 to 10 | Cc1c(C(=O)N2CCCCC2)sc2nc(-c3ccccc3)n3ccnc3c12 [Example 13] | 
10 to 25 | Nc1c(C(=O)N2CCCCC2)sc2nc(-c3ccc4ccccc4n3)n3ccnc3c12 [Example 20] | 
< 3 | Nc1c(C(=O)N2CCC(F)CC2)sc2nc(-c3ccccc3)n3ccnc3c12 [Example 1, (9-amino-5-phenylimidazo[1,2-c]thieno[3,2-e]pyrimidin-8-yl)(4-fluoropiperidin-1-yl)methanone] | IC50 (15-PGDH enzyme; stated in text as bounds, read-out: IC50 value of the inhibitory activity against 15-PGDH enzyme): < 1.5 nM
3 to 10 | N#Cc1c(C(=O)N2CCCCC2)sc2nc(-c3ccccc3)n3ccnc3c12 [Example 22] | 

SMILES | IC50 (15-PGDH enzyme; [1]) [nM] | further results
Cn1ccc2cc(-c3nc4sc(C(=O)N5CCCCC5)c(N)c4c4nccn34)ccc2c1=O [Example 25, 6-(9-amino-8-(piperidin-1-carbonyl)imidazo[1,2-c]thieno[3,2-e]pyrimidin-5-yl)-2-methylisoquinolin-1(2H)-one] | < 3 | PGE2 up-regulation rate (A549 cells; compound 3.2 nM): 513%; PGE2 up-regulation rate (A549 cells; compound 16 nM): 782%; PGE2 up-regulation rate (A549 cells; compound 80 nM): 741%
